Laboratory results: US11554105B2, “Combinations of artemisinins, BCL-2 inhibitors, and kinase inhibitors for cancer treatment” (UNIVERSITY OF MARYLAND, BALTIMORE, priority 2018, dated 2023)
“Also recorded” adds a separate entry of the source. Like-named read-outs stand apart in the source and are kept apart here. Marks after values point to notes of the source that are not given here.

Tests used:
[1] = tested on: mitochondrial superoxide in MOLM14 cells; assay: Mitochondrial superoxide (MitoSOX Red, flow cytometry); format: cell-based, human; details: 16 h, 2.25× approximate 48 h IC50, MitoSox MFI
Protocol: FIGS. 4A-4D. Effects of ART-838- and AS-containing drug combinations on MOLM14 growth and superoxide generation. […] CIs were computed as described above. CI<1 indicates synergy, CI=1, additivity, CI>1, antagonism. […] Cells were then loaded with 5 μM MitoSox for 30 min, washed, and analyzed by flow cytometry for MitoSox fluorescence (indicating mitochondrial superoxide) in the FL2 channel. Mean fluorescence intensity (MFI) was normalized to that of vehicle control (0.5% DMSO) with no pretreatment (100%, lower dotted lines). Upper dotted lines show MFI of ART-838- or AS-treated cells. Error bars represent the SEM of three independent experiments.
Cells were pretreated with NAC, Tiron, DFO, or vehicle then treated with AS, ART-838, or vehicle, as described above, then following a 16-hour drug treatment, cells were loaded with 5 μM MitoSOX Red (Invitrogen, Carlsbad, Calif.) for 30 minutes at 37° C. with 5% CO2, then analyzed using the FL2 channel of an Accuri C6 flow cytometer.
As both ART-838 and AS increased mitochondrial superoxide, and many antineoplastic drugs induce ROS generation, mitochondrial superoxide levels of MOLM14 cells treated with each of the above six antileukemic drugs were evaluated, alone and in combination with ART-838 or AS. All six drugs induced mitochondrial superoxide, although to a much lesser extent than did ART-838 (FIG. 4B) or AS (FIG. 4D).

human AML cell lines = assay: In vitro efficacies of artemisinin derivatives against human AML cell lines; format: cell-based
Protocol: Cell lines were seeded in 96-well tissue culture plates at 10^4 cells per well (myeloid leukemia lines) or 2×10^4 cells per well (lymphoid leukemia lines) in culture medium, followed by addition of drugs at the indicated concentrations. 2-4 wells per plate containing media-only were included for background subtraction. Peripheral wells were filled with sterile water to minimize the effects of evaporation.
A novel trioxane dimer allyloxime-631 (ART631) has been designed to further extend in vivo T1/2 without sacrificing antimalarial activity.

[2] = PO qd×5 at MTD; 15 mg/kg ART631, 50 mg/kg ART838
Protocol: (§1) FIG. 24. Concentration-time profile for 2C-ARTs with PK parameters.
Preliminary pharmacokinetic (PK) studies were designed to compare the PK of ART631 at steady-state at its maximum tolerated dose (MTD) (FIG. 24). […] ART631 plasma concentrations exceeded 50 nM for ˜8 h.

in vivo = assay: in vivo
Excerpt: as §1
FIG. 25A-25C. […] NOD-Rag1^nullIL2rg^null (NRG) mice were transplanted IV with Luc-labelled MV4; 11 cells on d10. […] FIG. 25A) MTD cyclic drug treatment schema.

[3] = tested on: MV4:11 or MOLM14 AML xenografts; assay: Luc-labelled AML xenografts treated with VEN, SOR and ART838 or ART631 (5-cycle MTD regimen); format: in vivo, NRG mice; details: two AML xenograft models; single agents and in combination with VEN+SOR
Excerpt: FIG. 25A-25C. […] FIG. 25A) MTD cyclic drug treatment schema.
Outcome metrics included 1) maximal in vivo antileukemic efficacy 3 days (d) after completion of the 1st treatment cycle (FIG. 25B); 2) survival (FIG. 25C); and 3) toxicity.

[4] = tested on: human leukemia cell lines; details: more potent than AS; cited from earlier work
[5] = cited from earlier work
KOPN8 = assay: Kinase inhibitor drug combination screen (MTS, Bliss-independence analysis); format: cell-based, human; details: Drug 1 combined with ART-838 (Drug 2) at its approximate IC50, 48 h, average over seven Drug 1 concentrations
RCH-ACV = assay: as above; details: Drug 1 combined with AS (Drug 2) at its approximate IC50, 48 h, average over seven Drug 1 concentrations
Protocol: (§2) Plates (3×384-well per set) contained 7 graded concentrations of each drug at 2× final concentration in culture media in 25 μl/well. […] Cells were plated such that each well contained 2500 cells (MOLM14) or 5000 cells (KOPN8 and RCH-ACV). […] Each plate contained two positive control wells used for background subtraction. Each plate also contained 45 wells without any drug. The background-subtracted absorbance for each well was normalized to the average of the no-drug wells from the corresponding vehicle plate.
(§3) Hits were ranked by the observed inhibition over the Bliss independence prediction.
(§4) Combinations with positive values for this Bliss difference were considered synergistic, values near zero, additive, and negative values, antagonistic.

[6] = tested on: MOLM14, KOPN8 and RCH-ACV cell lines; assay: Kinase inhibitor drug combination screen, summary over the three cell lines; details: >10% growth inhibition over the Bliss prediction; of three cell lines
Protocol: as §2, §3, §4

| fractional inhibition over Bliss prediction (KOPN8) | fractional inhibition over Bliss prediction (RCH-ACV) | SMILES | mitochondrial superoxide generation, drug alone [1] | IC50 (human AML cell lines; median over the human AML cell lines tested (11 for AS and ART838, 4 for ART631), read-out: IC50 median) [µM] | IC50 (human AML cell lines; range over the human AML cell lines tested (11 for AS and ART838, 4 for ART631), read-out: IC50 range) [µM] | exposure, oral ART631 compared with ART838 [2] | previously established MTD, PO×5 d schedule (in vivo; 5 d-on/9 d-off, gavage) [mg/kg/day] | MTD regimen, repeated dose (in vivo; qd×5 PO) [mg/kg] | tolerability and antileukemic efficacy, ART631 compared with ART838 [3] | in vitro potency relative to AS [4] [fold] | in vivo T1/2 [5] [h] | No. Cell Lines synergistically inhibited by drug 1 combined with AS and/or ART-838 [6] |
| --- | --- | --- | --- | --- | --- | --- | --- | --- | --- | --- | --- | --- |
| – | – | C[C@@H]1CCC2[C@@H](C)[C@@H](CC(COP(=O)(Oc3ccccc3)Oc3ccccc3)C[C@H]3O[C@@H]4O[C@@]5(C)CCC6[C@H](C)CCC([C@H]3C)[C@]64OO5)O[C@@H]3O[C@@]4(C)CCC1[C@@]23OO4 (stereo partly drawn) [ART-838, artemisinin-derived trioxane diphenylphosphate dimer 838] | induced superoxide to greater levels than AS; also recorded: induced mitochondrial superoxide generation | 0.038 | 0.01 to 0.547 | similar | 50 | 50 | closely similar tolerability and antileukemic efficacy | 88 | 3 | – |
| KOPN8 (0.12) | RCH-ACV (0.14) | COc1cc(Oc2ccnc3cc(OC)c(OC)cc23)ccc1NC(=O)NC(C)c1nccs1 (stereo not drawn) [KI20227] | – | – | – | – | – | – | – | – | – | 2/3** |
